Test results taken from BigSolDB 2.1.

CCOC(=O)[C@@H]1CSCN1.Cl
solubility (mole fraction)
Conditions | 283.15 K | 288.15 K | 293.15 K | 298.15 K | 303.15 K | 313.15 K | 323.15 K
in 1,4-dioxane | – | 0.000476 | 0.000593 | – | 0.000872 | 0.00156 | 0.00266
in 2-butanone | 4.1e-05 | – | 0.000107 | – | 0.00018 | 0.000298 | 0.000434
in acetone | 4e-05 | – | 0.000116 | – | 0.000348 | 0.000859 | 0.00187
in acetonitrile | 0.000408 | – | 0.00125 | – | 0.00252 | 0.00451 | 0.00664
in dichloromethane | 0.00638 | 0.01 | 0.0128 | 0.0157 | 0.0187 | – | –
in ethanol | 0.00937 | – | 0.0125 | – | 0.0193 | 0.0306 | 0.0473
in ethyl acetate | 0.000103 | – | 0.000161 | – | 0.000215 | 0.000273 | 0.000345
in isobutanol | 0.00153 | – | 0.00257 | – | 0.00495 | 0.00811 | 0.0117
in isopropanol | 0.00271 | – | 0.00323 | – | 0.00492 | 0.00807 | 0.0131
in methanol | 0.0465 | – | 0.0619 | – | 0.0835 | 0.112 | 0.142
in methyl acetate | 3.8e-05 | – | 7e-05 | – | 0.000126 | 0.000192 | 0.000276
in n-butanol | 0.00141 | – | 0.00427 | – | 0.00829 | 0.0124 | 0.017
in n-propanol | 0.00489 | – | 0.0078 | – | 0.012 | 0.0186 | 0.0298
in sec-butanol | 0.000766 | – | 0.00103 | – | 0.00182 | 0.00365 | 0.00936
in water | 0.0825 | – | 0.104 | – | 0.124 | 0.148 | 0.188
